In ChEMBL document CHEMBL5620410, “Crystal structures of non-uracil ring fragments in complex with Mycobacterium tuberculosis uracil DNA glycosylase (MtUng) as a starting point for novel inhibitor design: A case study with the barbituric acid fragment” (Eur J Med Chem, 2023):

Assays:
[1] = Inhibition of Mycobacterium tuberculosis Uracil-DNA glycosylase using 5' 32P end-labelled uracil DNA containing oligomer (5'-ctcaagtgUaggcatgcttttgcatgcctgcacttga-3') as substrate preincubated with enzyme for 15 mins followed by incubation on ice for 5 mins and incubation at room temperature for 5 mins and later incubated with substrate for 15 mins by radioactivity based assay
[2] = Inhibition of Mycobacterium tuberculosis Uracil-DNA glycosylase using 5'-FAM-CUUUUUGAGCTTTTGCTCAAAAAG-3'-BHQ-1 as substrate measured every 2 mins for 40 mins by fluorescence based analysis

Row | Compound | IC50 [1] [µM] | IC50 [2] [µM]
1 | O=c1cc[nH]c(=O)[nH]1 [URACIL] | 800 | 2050
2 | COC(=O)COc1ccc(C=C2C(=O)NC(=O)NC2=O)cc1 | 500 | 330
3 | O=C(O)c1cc(=O)[nH]c(=O)[nH]1 [OROTIC ACID] | 2300 | 14200
4 | O=Cc1cc(=O)[nH]c(=O)[nH]1 | 1000 | 6510
5 | COC(=O)CCCOc1ccccc1C=C1C(=O)NC(=O)NC1=O |  | 990
6 | O=C(O)c1c[nH]c(=O)[nH]c1=O | 2400 | 15900
7 | O=C1NC(=O)C(=Cc2ccc(OCCCOc3ccccc3C(=O)O)cc2)C(=O)N1 | 700 | 
8 | COC(=O)c1ccccc1OCCCOc1ccc(C=C2C(=O)NC(=O)NC2=O)cc1 | 1600 | 
9 | O=C1NC(=O)C(=Cc2ccc(Br)cc2)C(=O)N1 | 1500 | 
10 | O=C1NC(=O)C(=Cc2ccc(OCCOc3ccccc3C(=O)O)cc2)C(=O)N1 | 1900 | 1100
11 | COc1cccc(C=C2C(=O)NC(=O)NC2=O)c1 | 1900 | 
12 | O=C1CC(=O)NC(=O)N1 [BARBITURIC ACID] | 1000 | 7290
13 | COC(=O)CCCOc1ccc(C=C2C(=O)NC(=O)NC2=O)cc1 | 3000 | 
14 | Cc1cc2nc3[nH]c(=O)[nH]c(=O)c3nc2cc1C [LUMICHROME] | 1500 | 
15 | COC(=O)COc1ccccc1C=C1C(=O)NC(=O)NC1=O |  | 5550
16 | COC(=O)c1cccc(OCCOc2ccc(C=C3C(=O)NC(=O)NC3=O)cc2)c1 | 2400 | 
17 | COC(=O)CCCOc1cccc(C=C2C(=O)NC(=O)NC2=O)c1 |  | 4200
18 | COc1cc2nc(O)nc(O)c2cc1OC |  | 930
19 | COC(=O)c1ccccc1OCCOc1ccc(C=C2C(=O)NC(=O)NC2=O)cc1 | 100 | 
20 | COC(=O)c1ccc(OCCOc2ccccc2C=C2C(=O)NC(=O)NC2=O)cc1 | 3500 | 
21 | O=C1NC(=O)C(=Cc2ccc([N+](=O)[O-])cc2)C(=O)N1 | 1000 | 
22 | O=C(O)c1[nH]c(=O)[nH]c(=O)c1F | 2800 | 2930
23 | O=C1CSC(=O)N1 [THIAZOLIDINEDIONE] |  | 17300
24 | Oc1ncc(O)c(O)n1 | 1200 | 2800
25 | COC(=O)c1ccccc1OCCOc1ccccc1C=C1C(=O)NC(=O)NC1=O |  | 1060
26 | COC(=O)c1ccc(OCCOc2ccc(C=C3C(=O)NC(=O)NC3=O)cc2)cc1 | 1200 | 
27 | Oc1nc(O)c2nc(O)[nH]c2n1 [URIC ACID] | 1700 | 16400
28 | COC(=O)COc1cccc(C=C2C(=O)NC(=O)NC2=O)c1 |  | 10400
